Tests used:
[1] = system: PAH-SMCs; assay: Hyperproliferative phenotype of PAH smooth muscle cells; format: cell-based, human; conditions: vs DMSO
Excerpt: PAH-FBs wurden mit verschiedenen Konzentrationen der Substanz SGC-CBP30 oder dem Lösungsmittel DMSO inkubiert, um die Zellproliferation und die Induktion von Apoptose 24 Stunden danach zu untersuchen. Die Wirkung der selektiven EP300/CREBBP-Inhibition auf die Zellproliferation wurde durch den Einbau von BrdU (Bromodeoxyuridin, 5-Bromo-2'-Deoxyuridin, BUdR, BrdUrd, Broxuridine) bewertet. Die Wirkung der Substanz SGC-CBP30 oder des Lösungsmittels DMSO auf die Induktion von Apoptose wurde durch Cell Death Detection ELISAPLUS bewertet. Dabei zeigten sich deutliche Unterschiede zwischen der Substanz SGC-CBP30 und dem Lösungsmittel DMSO.
Das therapeutische Potenzial der EP300/CREBBP-Hemmung durch die Substanz SGC-CBP30 wurde untersucht. Dazu wurde die Wirksamkeit auf PAH-FBs und PAH-SMCs geprüft, die aus den Lungenarterien von menschlichen PAH-Patienten und aus den Lungenarterien von Ratten mit MCT-PAH (Rattenmodell mit Monocrotalin) isoliert wurden. […] Die Wirkung der EP300-Hemmung auf das vaskuläre Remodelling wurde durch Quantifizierung der prozentualen medialen Wanddicke in den mit der Substanz SGC-CBP30 inkubierten PCLS im Vergleich zu den mit DMSO inkubierten Kontrollen bewertet. Dabei zeigten sich deutliche Unterschiede zwischen der Substanz SGC-CBP30 und DMSO.

[2] = system: MCT-PAH; assay: Monocrotaline-induced PAH rat model, right heart catheterisation and histology; format: in vivo, Ratten; conditions: MCT-PAH rats, three times weekly for two weeks, intratracheal nebulisation 275 nmol/kg
Excerpt: (§1) Um das therapeutische Potenzial der EP300/CREBBP-Hemmung in vivo weiter zu erforschen, haben die Erfinder Versuchstiere in drei verschiedenen Nagetiermodellen mit etablierter PAH mit der Substanz SGC-CBP30 behandelt, wobei SGC-CBP30 durch intra-tracheale Vernebelung über zwei Wochen lang dreimal wöchentlich verabreicht wurde. Es wurden folgende drei verschiedenen Nagetiermodelle für eine PAH (FHR-PAH, MCT-PAH und SuHx-PAH) getestet: • Fawn-hooded hypertensive Ratten (FHR): Das ist ein genetischer Rattenstamm, bei dem PAH im Alter spontan auftritt und der ähnliche PAH-Anomalien aufweist, wie sie bei IPAH bei Menschen nach 40 Wochen auftreten. • Durch Monocrotalin (MCT) induziertes PAH-Rattenmodell. • Ein SUGEN5416/chronische Hypoxie (SuHx)-Rattenmodell für PAH, bei dem die Ratten eine einmalige Injektion von SUGEN5416 erhielten und anschließend einer chronischen Hypoxie (10% O2) ausgesetzt wurden (SuHx-PAH).
(§2) Für die MCT-PAH wurden männlichen und weiblichen SD-Ratten (Sprague-Dawley-Ratten) subkutan 60 mg/kg MCT (Sigma, Katalog: C2401) injiziert, um PAH zu induzieren. Bei der SuHx-PAH erhielten SD-Ratten eine einmalige subkutane Injektion von SUGEN5416 (20 mg/kg) und wurden drei Wochen lang einer normobaren Hypoxie ausgesetzt, bevor sie für zwei Wochen an die Raumluft zurückkehrten. Zwei Wochen nach der MCT-Injektion bzw. drei Wochen nach der SUGEN5416-Injektion (sobald PAH festgestellt wurde) wurden die Ratten nach dem Zufallsprinzip in vier Gruppen eingeteilt und erhielten zwei Wochen lang dreimal wöchentlich entweder Vehikel (Verabreichung von 1 % Methylcellulose in destilliertem Wasser oder intratracheale Vernebelung von 4 % DMSO in PBS als Negativkontrolle), SGC-CBP30 (Verabreichung von 10 mg/kg in 1 % Methylcellulose + destilliertem Wasser) oder SGC-CBP30 (intratracheale Vernebelung von 275 nmol/kg in 4 % DMSO + PBS). Einjährige männliche und weibliche FHR-Ratten mit etablierter PAH wurden in dieselben vier Gruppen wie beim MCT-Modell eingeteilt und den selben Behandlungsmethoden unterzogen. Für die Vernebelung wurden die Ratten mit 3%igem Isofluran betäubt. Ein 16-Gauge-Katheter wurde in die Luftröhre eingeführt. Ein Vernebler (Aerogen) wurde an den Katheter angeschlossen, und für jede Behandlung wurde ein Volumen von 50 µl SGC-CBP30 oder dessen Vehikel (als Negativkontrolle) verabreicht. Nach zweiwöchiger Behandlung wurde eine Rechtsherzkatheteruntersuchung bei geschlossenem Thorax durchgeführt, um folgende hämodynamischen Daten zu erfassen: Systolischer Rechtsventrikulärer Druck (RVSP), mittlerer PA-Druck (mPAP), Herzzeitvolumen (CO) und Schlagvolumen (SV). Der Gesamtwiderstand der Lunge (TPR) wurde durch Division von mPAP durch CO ermittelt. Nach der hämodynamischen Messung wurden den Ratten Gewebeproben entnommen. Die Experimente wurden gemäß den Richtlinien des Canadian Council on Animal Care durchgeführt. Alle Protokolle wurden von der institutionellen Ethikkommission für Tiere (Tierschutzausschuss der Universität Laval) geprüft und genehmigt (Protokollnummer 2019-018-2). Alle Experimente folgten den Richtlinien für die präklinische Forschung bei PAH.
(§3) Der schwarze Balken zeigt 50 µm an. Die Daten sind als Mittelwert ± SD angegeben und die statistische Analyse wurde mit einem ungepaarten Student's t-Test durchgeführt. FHR, MCT und SU5416/chronische Hypoxie-Ratten: *P<0,05, **P<0,01 und ***P<0,001 gegenüber den mit Vehikel behandelten Gruppen. MCT-Rattenmodell: §P<0,05, §§P<0,01 und §§§P<0,001 gegenüber der unbehandelten Kontrollgruppe. • A: Schematische Darstellung des Versuchsaufbaus für die Behandlung von Fawn-hooded hypertensive Ratten (FHR) mit dem EP300/CREBBP-Inhibitor SGC-CBP30, der selektiv auf die Acetyltransferase EP300/CREBBP wirkt. […]

[3] = system: FHR-PAH; assay: Fawn-hooded hypertensive rat model of established PAH, right heart catheterisation and histology; format: in vivo, Ratten; conditions: FHR-PAH rats, three times weekly for two weeks
Excerpt: as §1, §2, §3

[4] = intratracheal nebulisation 275 nmol/kg, vs vehicle

COc1ccc(CCc2nc3cc(-c4c(C)noc4C)ccc3n2C[C@H](C)N2CCOCC2)cc1Cl [SGC-CBP30, 2-[2-(3-Chloro-4-methoxyphenyl)ethyl]-5-(3,5-dimethyl-1,2-oxazol-4-yl)-1-[(S)-2-(morpholin-4-yl)propyl]-1H-benzimidazole]
hyperproliferativer Phänotyp [1]: schwächte den hyperproliferativen Phänotyp und die Apoptoserate von PAH-FBs und PAH-SMCs deutlich ab | RVSP ([2]; start two weeks after MCT): signifikanten Senkung | mPAP ([2]; start two weeks after MCT): signifikanten Senkung | CO [2]: verbesserten sich nach der Behandlung mit der Substanz SGC-CBP30 bei FHR-PAH und MCT-PAH signifikant | SV [2]: verbesserten sich nach der Behandlung mit der Substanz SGC-CBP30 bei FHR-PAH und MCT-PAH signifikant | mediale Wanddicke der distalen PAs [2]: signifikant verringert | TPR ([2]; mPAP divided by CO): signifikanten Senkung | molekulare Marker für Myokardhypertrophie [3]: signifikant abgeschwächt | mediale Wanddicke der distalen PAs ([3]; intratracheal nebulisation 275 nmol/kg): signifikant verringert | TPR ([3]; intratracheal nebulisation 275 nmol/kg, mPAP divided by CO): signifikanten Senkung | CO [3, 4]: verbesserten sich nach der Behandlung mit der Substanz SGC-CBP30 bei FHR-PAH und MCT-PAH signifikant | RVSP [3, 4]: signifikanten Senkung | SV [3, 4]: verbesserten sich nach der Behandlung mit der Substanz SGC-CBP30 bei FHR-PAH und MCT-PAH signifikant | mPAP [3, 4]: signifikanten Senkung
